Source: article PMC6315506 (Viruses, 2018)
Read-outs that look alike come from different tables or passages of the source.

Legend:
EBOV = conditions: cited from earlier work
in vitro = conditions: human
HIV-1/EBOV pseudovirus [1] = experiment: microbe, parasite or virus in culture; conditions: Zaire ebolavirus, A549, read-out: IC50 (anti-HIV-1/EBOV)
HIV-1/H5N1 pseudovirus = experiment: organism not typed; assay type: cell-based, influenza A virus A/Goose/Qinghai/59/05 (H5N1); conditions: for inhibition at 10 µM: A549, 48 h, read-out: Inhibition HIV-1/H5N1; for Inhibition HIV/H5N1: 10 µM
HIV-1/EBOV pseudovirus [2] = experiment: organism not typed; conditions: A549, 48 h, read-out: Inhibition HIV-1/EBOV
HIV-1/LASV pseudovirus = experiment: microbe, parasite or virus in culture; assay type: cell-based; conditions: for inhibition at 10 µM: Human immunodeficiency virus 1, A549, 48 h, read-out: Inhibition HIV-1/LASV; for Inhibition HIV/LASV: 10 µM
HIV-1/EBOV pseudovirus [3] = conditions: for Inhibition HIV/EBOV: 10 µM
A549 cells = conditions: 10 µM
[4] = system: EBOV Mayinga isolate (EBOV-GFP); experiment: microbe, parasite or virus in culture; assay type: cell-based, Ebola virus; conditions: for IC50: read-out: IC50 against replication of infectious EBOV
Ebola glycoprotein = conditions: cited from earlier work

SMILES	CC50 (in vitro) [µM]	viability at 10 µM (in vitro) [%]	IC50 (HIV-1/EBOV pseudovirus [1]) [µM]	inhibition at 10 µM (HIV-1/H5N1 pseudovirus) [%]	inhibition at 10 µM (HIV-1/EBOV pseudovirus [2]) [%]	inhibition at 10 µM (HIV-1/LASV pseudovirus) [%]	SI (CC50/IC50) (HIV-1/EBOV pseudovirus [3])	Inhibition HIV/H5N1 (HIV-1/H5N1 pseudovirus) [%]	Cell Viability (A549 cells) [%]	Inhibition HIV/LASV (HIV-1/LASV pseudovirus) [%]	Inhibition HIV/EBOV (HIV-1/EBOV pseudovirus [3]) [%]	further results
CCN(CC)CC(=O)NCc1cc(-c2ccc(I)cc2)no1 [3,5-Disubstituted isoxazole]												IC50 (EBOV): 2.5 µM
O=c1oc2c(O)c(O)cc3c(=O)oc4c(O)c(O)cc1c4c23 [Ellagic acid]												IC50 (EBOV): 1.4 µM
COc1ccc(S(=O)(=O)N(CC(=O)Nc2ccccc2-c2ccccc2)c2ccc(C)cc2)cc1 [MBX 2254]												IC90 (EBOV): 3 µM
COc1nc2ccccc2cc1C(O)(Cc1cccc(F)c1)c1ccccc1CN(C)C (stereo not shown) [SYL1640]	190	97.6	2.96	-1.97	79.1	-15.1	64.3					
COc1nc2ccccc2cc1C(c1ccccc1)C(O)(CC(=O)N(C)C)c1cccc2ccccc12 (stereo not shown) [SYL1642]	152	72.3	5.21	14.1	92.2	35	29.2					
COc1nc2ccc(Br)cc2cc1C(O)(CCc1ccccc1)c1ccccc1CN(C)C (stereo not shown) [SYL1654]	222	94.7	4.98	8.04	84.8	18.8	44.7					
COc1ccc(CC(O)(c2ccccc2CN(C)C)c2cc3cc(Br)ccc3nc2OC)cc1 (stereo not shown) [SYL1655]	132	95.3	2.65	-17.2	90.3	28.9	49.9					
COc1cccc(COc2nc3ccc(Br)cc3cc2-c2cccc(CN(C)C)c2)c1 [SYL1657]	215	93.9	3.56	0.16	89.2	25.8	60.3					
Brc1ccc2nc(OCc3cccc4ccccc34)c(-c3cnn(C4CCCCO4)c3)cc2c1 (stereo not shown) [SYL1658]	110	72.7	8.65	36.9	77.4	19.2	12.7					
COC1=Nc2ccccc2C(C2(c3ccccc3)CCN(C)CC2)C1C(=O)c1ccccc1 (stereo not shown) [SYL1660]	185	106	2.58	3.34	97.5	-26.6	71.6					
Brc1ccc2nc(OCc3cccc4ccccc34)c(-c3ccc(CNC45CC6CC(CC(C6)C4)C5)cc3)cc2c1 [SYL1683]	235	104	2.93	21.7	95.7	26.3	80.3					
COc1ccc2nc(OCc3cccc4ccccc34)c(-c3ccc(CN(C)C)cc3)cc2c1 [SYL1702]								87.31	89.90	89.93	99.95	
COc1ccccc1COc1nc2ccc(Br)cc2cc1-c1ccc(CN(C)C)cc1 [SYL1705]								59.98	86.34	88.92	99.76	
COc1ccc(COc2nc3ccc(Br)cc3cc2-c2ccc(CN(C)C)cc2)cc1 [SYL1706]								54.58	82.99	87.40	99.20	
COc1cccc(COc2nc3ccc(Br)cc3cc2-c2ccc(CN(C)C)cc2)c1 [SYL1707]								95.43	80.79	78.74	99.14	
Brc1ccc2nc(OCc3cccc4ccccc34)c(-c3ccc(CN4CCOCC4)cc3)cc2c1 [SYL1708]								18.60	80.29	82.96	98.58	
COc1cc(-c2cc3cc(Br)ccc3nc2OCc2cccc3ccccc23)ccc1CN(C)C [SYL1709]								94.56	74.44	81.68	99.76	
CN(C)CCN1CCN(c2ccc(-c3cc4cc(Br)ccc4nc3OCc3cccc4ccccc34)cc2)CC1 [SYL1710]								97.63	1.97	98.64	99.39	
CN(C)Cc1ccc(-c2cc3cc(Br)ccc3nc2-n2ccnc2)cc1 [SYL1711]	242	90.7	4.11	38.3	98.7	25.5	58.9					
CN(C)Cc1ccc(-c2cc3cc(Br)ccc3nc2OCc2ccc(Cl)cc2)cc1 [SYL1712]		96.9	~1	5.75	99.4	55.4	225.9					selective index (SI) [4]: 37.2; IC50 ([4]; Zaire ebolavirus, HeLa, 24 h): 2 µM; IC50 [4]: 1.99 µM; IC50 (HIV-1/EBOV pseudovirus [3]; read-out: IC50 (anti-HIV-1/EBOV)): 0.95 µM
CN(C)Cc1ccc(-c2cc3cc(Br)ccc3nc2N2CCN(C)CC2)cc1 [SYL1713]								97.68	1.24	99.40	99.58	
CN(C)Cc1ccc(-c2cc3cc(Br)ccc3nc2N2CCCCC2)cc1 [SYL1714]								83.36	91.09	51.47	98.67	
CN(C)Cc1ccc(-c2cc3cc(Br)ccc3nc2OCc2cccc(F)c2)cc1 [SYL1715]								95.43	84.72	76.84	99.61	
COc1cc(CN(C)C)ccc1-c1cc2cc(Br)ccc2nc1OCc1cccc2ccccc12 [SYL1716]								98.20	1.73	99.34	99.70	
CN(C)CCNc1nc2ccc(Br)cc2cc1-c1ccc(CN(C)C)cc1 [SYL1721]								98.20	1.26	99.50	99.63	
CN(C)CCOc1nc2ccc(Br)cc2cc1-c1ccc(CN(C)C)cc1 [SYL1723]								98.10	68.89	97.12	99.81	
CN(C)CCOc1ccc(/C(=C(/CCCl)c2ccccc2)c2ccccc2)cc1 [Toremifene]												Kd (Ebola glycoprotein): 16 µM
FC(F)C(F)(F)C1=Nc2ccccc2N=C(c2ccccc2)C1 [benzodiazepine]												IC90 (EBOV): 3.5 µM
